Where a SMILES comes first, the peptide text is derived from it.

The assay concerns the target HLA B*0801 (Homo sapiens, UniProt P01889, A93T/A95T/D138N/E176V/E187T/K202T/Q94N/R180D/S35A/V36M/Y33D/Y91F). Description: biochemical. The class given is binding.
As usually defined, the IC50 is the concentration at which inhibition is half-maximal. Higher therefore signals weaker potency in that assay. As for `CC(C)C[C@H](NC(=O)[C@@H](NC(=O)[C@H](CCCCN)NC(=O)[C@H](Cc1ccccc1)NC(=O)[C@H](CCCCN)NC(=O)[C@@H](NC(=O)[C@H](CC(N)=O)NC(=O)[C@H](CC(C)C)NC(=O)[C@@H](N)CO)[C@@H](C)O)[C@@H](C)O)C(=O)O` [3102.0746] (H-SLNTKFKTL-OH), the 50% inhibitory concentration (IC50) is 8.7 nM. The compound `CC(C)C[C@H](NC(=O)[C@H](CC(N)=O)NC(=O)[C@@H](NC(=O)[C@H](CC(C)C)NC(=O)[C@H](CCCNC(=N)N)NC(=O)[C@H](CCC(N)=O)NC(=O)[C@H](CCCCN)NC(=O)[C@H](CC(C)C)NC(=O)[C@@H](N)[C@@H](C)O)[C@@H](C)O)C(=O)O` [3102.0747] (H-TLKQRLTNL-OH) registered an IC50 of 1.7 nM. `CSCC[C@H](NC(=O)[C@H](CC(N)=O)NC(=O)[C@@H](N)CCC(=O)O)C(=O)N[C@@H](CC(C)C)C(=O)N[C@@H](CCCNC(=N)N)C(=O)N[C@@H](CO)C(=O)N[C@@H](CCSC)C(=O)N1CCC[C@H]1C(=O)N[C@H](C(=O)O)C(C)C` [3102.0748] (H-ENMLRSMPV-OH): the concentration for half-maximal inhibition (IC50) was 0.21 nM. In turn, `CSCC[C@H](NC(=O)[C@H](CCCNC(=N)N)NC(=O)[C@H](Cc1ccccc1)NC(=O)[C@@H]1CCCN1C(=O)[C@H](CCSC)NC(=O)[C@H](CCCCN)NC(=O)[C@H](CC(C)C)NC(=O)[C@@H](N)CC(C)C)C(=O)N[C@H](C(=O)O)C(C)C` [3102.0749] (H-LLKMPFRMV-OH) showed an IC50 of 7.1 nM. For the compound `CC(C)C[C@H](NC(=O)[C@@H](NC(=O)[C@H](CO)NC(=O)[C@H](Cc1ccccc1)NC(=O)[C@H](CC(C)C)NC(=O)[C@H](CO)NC(=O)[C@H](CC(C)C)NC(=O)[C@H](CC(C)C)NC(=O)[C@@H](N)Cc1ccc(O)cc1)[C@@H](C)O)C(=O)O` [3102.0750] (H-YLLSLFSTL-OH), the IC50 amounted to 4 nM.

The compound `CSCC[C@H](N)C(=O)N[C@@H](CC(C)C)C(=O)N[C@@H](CC(C)C)C(=O)N[C@@H](CCCCN)C(=O)N[C@@H](CCCCN)C(=O)N[C@@H](CC(C)C)C(=O)N[C@@H](CC(N)=O)C(=O)N[C@@H](CO)C(=O)N[C@@H](Cc1ccccc1)C(=O)O` [3102.0753] (H-MLLKKLNSF-OH) came in with an IC50 of 0.57 nM. The compound `CC(C)C[C@H](NC(=O)[C@H](CO)NC(=O)[C@H](C)NC(=O)[C@H](Cc1ccccc1)NC(=O)[C@H](CCCCN)NC(=O)[C@H](C)NC(=O)[C@H](Cc1ccc(O)cc1)NC(=O)[C@@H](NC(=O)[C@@H](N)[C@@H](C)O)C(C)C)C(=O)O` [3102.0754] (H-TVYAKFASL-OH) gave an IC50 of 1.6 nM. `CC(C)C[C@H](NC(=O)[C@H](CCCNC(=N)N)NC(=O)[C@H](Cc1c[nH]cn1)NC(=O)[C@H](CC(C)C)NC(=O)[C@H](Cc1ccc(O)cc1)NC(=O)[C@H](CCCNC(=N)N)NC(=O)[C@H](CCCNC(=N)N)NC(=O)[C@@H]1CCCN1C(=O)[C@@H](N)CS)C(=O)O` [3102.0755] (H-CPRRYLHRL-OH) came in with an IC50 of 2.7 nM. Compound `CC[C@H](C)[C@H](NC(=O)[C@@H](NC(=O)[C@H](C)N)[C@@H](C)O)C(=O)N[C@@H](CCC(N)=O)C(=O)N[C@@H](CCCNC(=N)N)C(=O)N[C@@H](Cc1ccccc1)C(=O)N[C@@H](CO)C(=O)N[C@@H](CO)C(=O)N[C@@H](CC(C)C)C(=O)O` [3102.0756] (H-ATIQRFSSL-OH) came in with an IC50 of 3.3 nM. With `CC[C@H](C)[C@H](NC(=O)[C@H](Cc1c[nH]cn1)NC(=O)[C@H](C)NC(=O)[C@H](Cc1ccc(O)cc1)NC(=O)[C@H](CC(C)C)NC(=O)[C@@H](N)CC(C)C)C(=O)N[C@@H](CC(N)=O)C(=O)N[C@@H](C)C(=O)N[C@@H](CC(C)C)C(=O)O` [3102.0757] (H-LLYAHINAL-OH), the IC50 was 1.4 nM. In the case of `N=C(N)NCCC[C@H](NC(=O)[C@H](CCCNC(=N)N)NC(=O)[C@@H](N)CC(=O)O)C(=O)N[C@@H](CO)C(=O)N[C@@H](Cc1ccccc1)C(=O)N[C@@H](Cc1ccccc1)C(=O)N[C@@H](CCCCN)C(=O)N[C@@H](CS)C(=O)N[C@@H](Cc1ccccc1)C(=O)O` [3102.0758] (H-DRRSFFKCF-OH) it was 76 nM; in that of `CC(C)[C@H](NC(=O)[C@H](Cc1ccc(O)cc1)NC(=O)[C@H](CCCNC(=N)N)NC(=O)[C@H](Cc1ccccc1)NC(=O)[C@H](CS)NC(=O)[C@H](CCCCN)NC(=O)[C@H](Cc1ccccc1)NC(=O)[C@@H](N)Cc1ccccc1)C(=O)N[C@@H](Cc1ccccc1)C(=O)O` [3102.0760] (H-FFKCFRYVF-OH), 11 nM; in that of `CSCC[C@H](NC(=O)CNC(=O)[C@@H](N)CO)C(=O)N[C@H](C(=O)N[C@@H](Cc1ccccc1)C(=O)N[C@H](C(=O)N[C@@H](CO)C(=O)N1CCC[C@H]1C(=O)N[C@H](C(=O)O)C(C)C)[C@@H](C)O)C(C)C` [3102.0762] (H-SGMVFTSPV-OH), 77 nM. `CC(C)C[C@H](NC(=O)[C@@H](N)Cc1c[nH]cn1)C(=O)N[C@@H](CCCCN)C(=O)N[C@@H](Cc1c[nH]cn1)C(=O)N[C@@H](Cc1c[nH]cn1)C(=O)N[C@@H](CCCCN)C(=O)N[C@@H](CCC(N)=O)C(=O)N[C@@H](CS)C(=O)N[C@H](C(=O)O)C(C)C` [3102.0763] (H-HLKHHKQCV-OH) registered an IC50 of 4.5 nM. In the case of `CC(C)C[C@H](NC(=O)[C@@H]1CCCN1C(=O)[C@H](CS)NC(=O)[C@H](CCCNC(=N)N)NC(=O)[C@H](CCCNC(=N)N)NC(=O)[C@H](CCCNC(=N)N)NC(=O)[C@H](CC(C)C)NC(=O)[C@H](Cc1ccccc1)NC(=O)[C@@H](N)CC(C)C)C(=O)O` [3102.0764] (H-LFLRRRCPL-OH) it was 0.13 nM; in that of `CC[C@H](C)[C@H](N)C(=O)N[C@@H](CO)C(=O)N[C@@H](CCC(=O)O)C(=O)N[C@@H](CO)C(=O)N[C@@H](CCCNC(=N)N)C(=O)N[C@@H](Cc1ccccc1)C(=O)N[C@@H](CCC(N)=O)C(=O)N[C@@H](CO)C(=O)N[C@@H](CC(C)C)C(=O)O` [3102.0767] (H-ISESRFQSL-OH), 40 nM.

As for `CC[C@H](C)[C@H](NC(=O)[C@H](CCCCN)NC(=O)[C@H](Cc1c[nH]cn1)NC(=O)[C@H](CCCCN)NC(=O)[C@@H](NC(=O)[C@H](CCCCN)NC(=O)[C@H](CO)NC(=O)[C@@H](N)CCSC)[C@@H](C)CC)C(=O)N[C@@H](Cc1ccccc1)C(=O)O` [3102.0769] (H-MSKIKHKIF-OH), the IC50 turned out to be 0.84 nM. Take `CC(C)C[C@H](NC(=O)[C@H](C)NC(=O)[C@H](CO)NC(=O)[C@H](Cc1ccccc1)NC(=O)[C@H](CCCCN)NC(=O)[C@H](CCCNC(=N)N)NC(=O)[C@H](CC(C)C)NC(=O)[C@H](Cc1ccc(O)cc1)NC(=O)[C@@H](N)CO)C(=O)O` [3102.0770] (H-SYLRKFSAL-OH): the IC50 was 6 nM.

`CC(C)C[C@H](NC(=O)[C@H](Cc1ccccc1)NC(=O)[C@H](CCC(=O)O)NC(=O)[C@H](Cc1ccccc1)NC(=O)[C@H](CCCCN)NC(=O)[C@H](CCCCN)NC(=O)[C@H](CC(C)C)NC(=O)[C@H](CC(C)C)NC(=O)CN)C(=O)O` [3102.0771] (H-GLLKKFEFL-OH): it took 47 nM to reach half-maximal inhibition (IC50). In the case of `CC[C@H](C)[C@H](NC(=O)[C@H](CCC(=O)O)NC(=O)[C@H](CCCNC(=N)N)NC(=O)[C@H](CC(C)C)NC(=O)[C@@H](N)CCC(=O)O)C(=O)N[C@@H](Cc1ccccc1)C(=O)N[C@@H](CCCNC(=N)N)C(=O)N[C@@H](CCCNC(=N)N)C(=O)N[C@@H](CC(C)C)C(=O)O` [3102.0772] (H-ELREIFRRL-OH) it was 27 nM; in that of `CC[C@H](C)[C@H](NC(=O)[C@H](CO)NC(=O)CNC(=O)[C@H](CCCCN)NC(=O)[C@H](CCCNC(=N)N)NC(=O)[C@H](CC(C)C)NC(=O)[C@H](CCCNC(=N)N)NC(=O)[C@H](CCCNC(=N)N)NC(=O)[C@@H](N)Cc1ccccc1)C(=O)O` [3102.0773] (H-FRRLRKGSI-OH), 3 nM. As for `CSCC[C@H](NC(=O)[C@@H](N)CCCNC(=N)N)C(=O)N[C@@H](CCCNC(=N)N)C(=O)N[C@@H](Cc1ccccc1)C(=O)N[C@@H](CCCCN)C(=O)N[C@@H](CCCCN)C(=O)NCC(=O)N[C@@H](C)C(=O)N[C@H](C(=O)O)C(C)C` [3102.0775] (H-RMRFKKGAV-OH), the IC50 was determined as 5.4 nM. As for `CSCC[C@H](NC(=O)[C@H](C)NC(=O)[C@@H](N)CCSC)C(=O)N[C@@H](Cc1ccccc1)C(=O)N[C@@H](Cc1ccc(O)cc1)C(=O)N[C@@H](C)C(=O)N[C@@H](Cc1c[nH]cn1)C(=O)N[C@@H](C)C(=O)N[C@@H](CC(C)C)C(=O)O` [3102.0776] (H-MAMFYAHAL-OH), the figure is 1.2 nM; as for `CC[C@H](C)[C@H](N)C(=O)N[C@@H](CCSC)C(=O)N[C@@H](CCCNC(=N)N)C(=O)N[C@@H](CCSC)C(=O)N[C@@H](CCCNC(=N)N)C(=O)N[C@@H](Cc1ccccc1)C(=O)N[C@@H](CCCCN)C(=O)N[C@@H](CCCCN)C(=O)NCC(=O)O` [3102.0777] (H-IMRMRFKKG-OH), 62 nM; as for `CC[C@H](C)[C@H](NC(=O)[C@H](CC(N)=O)NC(=O)[C@@H](N)CCCNC(=N)N)C(=O)N[C@@H](C)C(=O)N[C@@H](CCCNC(=N)N)C(=O)N[C@@H](Cc1c[nH]cn1)C(=O)N[C@@H](CC(C)C)C(=O)N[C@@H](C)C(=O)N[C@@H](CC(C)C)C(=O)O` [3102.0780] (H-RNIARHLAL-OH), 3.2 nM. `CC[C@H](C)[C@H](NC(=O)[C@@H](N)Cc1ccccc1)C(=O)N[C@@H](CCCCN)C(=O)N[C@@H](CCC(N)=O)C(=O)NCC(=O)N[C@@H](Cc1ccccc1)C(=O)N[C@@H](CC(N)=O)C(=O)N[C@@H](CC(N)=O)C(=O)N[C@@H](CC(C)C)C(=O)O` [3102.0781] (H-FIKQGFNNL-OH) displayed an IC50 of 0.91 nM. `CC[C@H](C)[C@H](NC(=O)[C@H](CC(C)C)NC(=O)[C@@H](N)CC(N)=O)C(=O)N[C@H](C(=O)N[C@@H](Cc1c[nH]cn1)C(=O)N[C@H](C(=O)N[C@@H](C)C(=O)N[C@@H](C)C(=O)N[C@@H](CC(C)C)C(=O)O)[C@@H](C)O)[C@@H](C)CC` [3102.0785] (H-NLIIHTAAL-OH) displayed an IC50 of 1.6 nM. Consider `CSCC[C@H](NC(=O)[C@H](CCCNC(=N)N)NC(=O)[C@H](CCCCN)NC(=O)[C@H](CO)NC(=O)[C@H](CCCCN)NC(=O)[C@H](C)NC(=O)[C@@H](N)Cc1ccc(O)cc1)C(=O)N[C@@H](C)C(=O)N[C@@H](CCC(=O)O)C(=O)O` [3102.0786] (H-YAKSKRMAE-OH), for which the IC50 is 31 nM.

The compound `CC[C@H](C)[C@H](NC(=O)[C@@H](N)CCCNC(=N)N)C(=O)N[C@@H](CC(C)C)C(=O)N[C@@H](Cc1ccccc1)C(=O)N[C@@H](CCCNC(=N)N)C(=O)N[C@@H](CCCCN)C(=O)N1CCC[C@H]1C(=O)N[C@@H](CO)C(=O)N[C@@H](CC(C)C)C(=O)O` [3102.0787] (H-RILFRKPSL-OH) showed a concentration for half-maximal inhibition (IC50) of 32 nM.

Values taken from PMC2248166, “Quantitative peptide binding motifs for 19 human and mouse MHC class I molecules derived using positional scanning combinatorial peptide libraries” (Immunome Research, 2008).
